Test results reported in US11440887B2, “Substituted 1,2,3,4-tetrahydroquinolines as inhibitors of repair enzyme 8-oxoguanine deoxyribonucleic acid glycosylase activity” (The Board of Trustees of the Leland Stanford Junior …, priority 2017, dated 2022).

Columns and labels:
[1] = tested on: Caco-2 cells (clone C2BBe1); experiment: CACO-2 permeability assay; format: in vitro ADME; settings: for Recovery: 5 μM, 120 minutes; for Papp AVG: average; for Papp R1: replicate 1
Experimental: Methods: Caco-2 cells (clone C2BBe1) were obtained from American Type Culture Collection (Manassas, Va.). Cell monolayers were grown to confluence on collagen-coated, microporous membranes in 12-well assay plates. Details of the plates and their certification are shown below. The permeability assay buffer was Hanks' balanced salt solution containing 10 mM HEPES and 15 mM glucose at a pH of 7.4. The buffer in the receiver chamber also contained 1% bovine serum albumin. The dosing solution concentration was 5 μM of test article in the assay buffer. Cell monolayers were dosed on the apical side (A-to-B) or basolateral side (B-to-A) and incubated at 37° C. with 5% CO2 in a humidified incubator. Samples were taken from the donor and receiver chambers at 120 minutes. Each determination was performed in duplicate. The flux of Lucifer yellow was also measured post-experimentally for each monolayer to ensure no damage was inflicted to the cell monolayers during the flux period. All samples were assayed by LC-MS/MS using electrospray ionization.

[2] = tested on: DUT (deoxyuridine 5′-triphosphate nucleotidohydrolase); settings: 20 μM
[3] = target: MTH1 (human MutT homolog 1) (Homo sapiens (Human), UniProt P36639); experiment: MTH1 assay (ARGO probe, Kinase-Glo); format: biochemical; settings: 20 μM
Experimental: (30 min). After that, 5 μL of this reaction solution was mixed with 20 μL of Kinase-Glo. Immediately, luminescence was measured on a Thermo Fluoroskan Ascent FL fluorescence plate reader. (See, e.g., Ji, D., et al., J. Am. Chem. Soc. 2016, 138, 9005-9008, the disclosure of which is incorporated herein by reference.) The slope of initial rate (6 min) was calculated, and % of control was used for inhibition activity. MTH1 was purchased from Abcam, PNK buffer was purchased from New England Biolabs, and Kinase-Glo was purchased from Promega.

ABH2 = ABH2 (Homo sapiens (Human), UniProt Q6NS38); experiment: ABH2 assay; format: biochemical; settings: 20 μM inhibitor
Experimental: (§1) Enzyme (0.5 μM) was pre-incubated for 5 minutes with 20 μM inhibitor or vehicle or at 37° C. in 50 mM HEPES buffer (pH 8.0) containing 75 μM Fe(NH4)2(SO4)2, 1 mM α-ketoglutarate, 2 mM Sodium ascorbate, 50 μg/ml BSA and 0.4 mg/ml Catalase. The probe (1 μM) was added and fluorescent signal plotted over 10 minutes to calculate initial rate. Inhibitor rates were normalized against the vehicle control rate.

SMUG1 = SMUG1 (Homo sapiens (Human), UniProt Q53HV7); experiment: SMUG1 assay; format: biochemical; settings: 20 μM inhibitor
Experimental: (See, e.g., Ono, T., et al., Nucleic Acids Res. 2013, 41, e127-e127, the disclosure of which is incorporated herein by reference.) Enzyme (500 U/mL) was pre-incubated for 5 minutes with 20 μM inhibitor or vehicle or at 37° C. in 50 mM Tris (pH 7.4), 1 mM DTT and 0.5 mM EDTA. Probe 2 (1 μM) was added and the fluorescent signal was plotted over 15 minutes to calculate initial rate. Inhibitor rates were normalized against the vehicle control rate.

HeLa cells = experiment: MTT assay, HeLa; format: cell-based, human; settings: 24 h
Experimental: Methods: HEK293T cells (concentration of 1.6×10^4 cells per well) and HeLa cells (concentration of 1.2×10^4 cells per well) were seeded to 96-well plate in supplemented DMEM culture medium (10% FBS, 100 U Pen./Strep.) and incubated for 30 h (HEK293T cells) and 16 h (HeLa cells) at +37° C. and 5% CO2. […] After the incubation period, 10 μL of the MTT labeling reagent (final concentration 0.5 mg/ml) was added to each well, and incubated at +37° C. and 5%. 100 μl of the solubilization solution was added into each well, and incubated for 20 h at +37° C. and 5%. Absorbance of the samples was measured by using a microplate reader Tecan Infinite M1000 at 550, and 650 nm. […] In the rest of the samples (10 μM, 1 μM, 100 nM, and 10 nM) concentration of DMSO was at the level of 1%. The controls were prepared: Ctrl—cells cultured only in the supplemented DMEM; Ctrl 5% DMSO—cells cultured in 5% DMSO in the supplemented DMEM; Ctrl 1% DMSO—cells cultured in 1% DMSO in the supplemented DMEM.

OGG1 = OGG1 (Homo sapiens (Human), UniProt O15527); experiment: OGG1 inhibitor assay with fluorogenic OGR1 probe (base excision, initial rates); format: biochemical
Experimental: Methods: Synthesized compounds and hOGG1 (100 nM) were incubated in NEBuffer 4 (1×) with BSA (1×) at 37° C. (15 min) in 100 μL reaction volumes in a black 96-well plate. (See, e.g., Edwards, S. K., et al., ChemBioChem 2015, 16, 1637-1646, the disclosure of which is incorporated herein by reference.) After that, OGR1 (1.2 μM) was added to the reaction mixture. Fluorescence at 460 nm was measured on a Thermo Fluoroskan Ascent FL fluorescence plate reader (λex=355 nm). The slope of initial rate (12 min) was calculated, and % of control was used for inhibition activity. BSA, hOGG1 and NEBuffer 4 were purchased from New England Biolabs and used. UltraPure Distilled Water (Invitrogen) was purchased and used for the assay.

hABH3 = hABH3 (Homo sapiens (Human), UniProt Q96Q83); experiment: ABH3 assay (MAQ probe); format: biochemical; settings: 20 μM inhibitor
Experimental: as §1, with “Fe(NH4)2(SO4)2, (See, e.g., Beharry, A. A., et al., J. Am. Chem. Soc. 2016, 138, 3647-3650, the disclosure of which is incorporated herein by reference.)” for “Fe(NH4)2(SO4)2,”, “The MAQ” for “The”, “control rate.3” for “control rate.”

Chain of OGG1 (O15527 whole entry): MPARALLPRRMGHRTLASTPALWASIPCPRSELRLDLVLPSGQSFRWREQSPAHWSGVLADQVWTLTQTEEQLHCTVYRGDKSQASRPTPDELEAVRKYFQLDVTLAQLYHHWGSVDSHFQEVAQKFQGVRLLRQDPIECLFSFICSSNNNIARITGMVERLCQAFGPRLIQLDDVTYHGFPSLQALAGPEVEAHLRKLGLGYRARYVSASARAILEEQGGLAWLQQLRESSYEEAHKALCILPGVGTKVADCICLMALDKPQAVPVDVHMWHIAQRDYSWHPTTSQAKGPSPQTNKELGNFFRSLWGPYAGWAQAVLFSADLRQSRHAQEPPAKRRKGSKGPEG
Chain of SMUG1 (Q53HV7 whole entry, species assumed): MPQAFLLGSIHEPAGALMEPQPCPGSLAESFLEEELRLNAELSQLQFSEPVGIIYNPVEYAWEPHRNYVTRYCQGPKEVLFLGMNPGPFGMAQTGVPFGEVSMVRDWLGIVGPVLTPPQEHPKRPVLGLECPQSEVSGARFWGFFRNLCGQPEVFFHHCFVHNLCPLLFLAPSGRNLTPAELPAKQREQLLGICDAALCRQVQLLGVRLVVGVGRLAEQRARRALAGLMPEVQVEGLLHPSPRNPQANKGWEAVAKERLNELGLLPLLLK
Chain of hABH3 (Q96Q83 whole entry): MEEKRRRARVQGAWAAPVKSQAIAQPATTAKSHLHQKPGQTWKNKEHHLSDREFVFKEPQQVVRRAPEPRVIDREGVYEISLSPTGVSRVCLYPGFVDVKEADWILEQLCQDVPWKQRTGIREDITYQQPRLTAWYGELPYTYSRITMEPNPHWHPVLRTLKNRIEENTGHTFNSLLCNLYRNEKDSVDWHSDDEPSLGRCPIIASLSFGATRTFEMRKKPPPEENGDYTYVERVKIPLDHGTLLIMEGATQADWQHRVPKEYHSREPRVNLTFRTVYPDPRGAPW
Chain of ABH2 (Q6NS38 whole entry, species assumed): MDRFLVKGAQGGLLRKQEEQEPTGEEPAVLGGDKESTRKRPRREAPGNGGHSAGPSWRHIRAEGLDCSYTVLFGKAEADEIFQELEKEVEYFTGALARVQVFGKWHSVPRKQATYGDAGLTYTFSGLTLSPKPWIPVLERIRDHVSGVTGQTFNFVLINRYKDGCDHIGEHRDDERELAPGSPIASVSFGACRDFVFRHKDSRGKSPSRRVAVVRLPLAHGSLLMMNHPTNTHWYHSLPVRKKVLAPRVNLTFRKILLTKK

NC(=O)c1cccc(-c2ccc(S(=O)(=O)Nc3ccc4c(c3)N(C(=O)C3CC3)CCC4)cc2)c1 [Compound 41]
Recovery ([1]; A-to-B): 65%
Papp AVG ([1]; A-to-B): 12.5 10^−6 cm/s
Papp R1 ([1]; A-to-B): 14.2 10^−6 cm/s
Efflux Ratio ([1]; B-to-A / A-to-B): 6.2
Recovery ([1]; B-to-A): 79%
Papp AVG ([1]; B-to-A): 77.4 10^−6 cm/s
Papp R1 ([1]; B-to-A): 63.5 10^−6 cm/s
activity of compound against DUT (selectivity) [2]: low
MTH1 enzyme activity in the presence of the inhibitor [3]: > 80%
ABH2 enzyme activity in the presence of the inhibitor (ABH2): > 90%
SMUG1 enzyme activity in the presence of the inhibitor (SMUG1): ~100%
cytotoxicity by MTT assay (HeLa cells; 10 nM to 10 μM): little or no cytotoxicity
toxicity by MTT assay (HeLa cells; 100 μM): 30-50%
Enzyme activity, % of control at 200 nM (OGG1; 200 nM compound, ratio of initial rate slope (first 12 min) to no-compound control): 39 ± 2.5 % of control
Enzyme activity, % of control at 2 μM (OGG1; 2 μM compound, ratio of initial rate slope (first 12 min) to no-compound control): 4.8 % of control
IC50 (OGG1; initial rates method): 59 nM
ABH3 enzyme activity in the presence of the inhibitor (hABH3): ~100%
